The text below walks through data of patent US6962923B2, “Pyrazole compositions” (Pfizer Inc., priority 1999, dated 2005).

For data set [1] the following is noted: in man; cited from earlier work.
In a further data set the test system is neointimal formation. The note with it: cited from earlier work.
The conditions of data set [2]: hypertensive patients; cited from earlier work.

As to `CCCC[C@@H](NC(=O)[C@@H](Cc1cn(C(=O)OC)c2ccccc12)NC(=O)[C@H](CC(C)(C)C)NC(=O)N1[C@H](C)CCC[C@@H]1C)C(=O)O` [BQ-788], the peripheral resistance result in data set [1] is “increase peripheral resistance”. A word on the melting point: it is the temperature, or range, at which the solid turns liquid. For `COc1ccccc1Oc1c(OC)nn(C)c1NS(=O)(=O)c1ccc(C(C)(C)C)cc1` [Example 107, 4-(tert-Butyl)-N-[3-methoxy-4-(2-methoxyphenoxy)-1-methyl-1H-pyrazol-5-yl]benzenesulfonamide], the melting point is 187.6 °C. `CCCOc1ccc2c(c1)[C@@H](c1ccc(OC)cc1OCC(=O)O)[C@H](C(=O)O)[C@H]2c1ccc2c(c1)OCO2` [SB-209670]: the “reduction in neointimal formation relative to control animals” value in the data set with neointimal formation was 50%. As for `COc1ccccc1Oc1c(NS(=O)(=O)c2ccc(C(C)(C)C)cc2)nc(-c2ncccn2)nc1OCCO` [Bosentan], in data set [2], the blood pressure entry was “decreased blood pressure”.
